The species entered for one assay is Rattus norvegicus. The assay is described as follows: Cardio selectivity ratio of Kapp for beta2 adrenergic receptor in rat lung muscle to Kapp for beta1 adrenergic receptor in rat ventricular muscle.
Assay [1] concerns the target Beta-1 adrenergic receptor (Rattus norvegicus) (UniProt P18090).
Description: Displacement of [3H]DHA from beta1 adrenergic receptor in rat ventricular muscle by competitive binding assay
In assay [2] the target is Beta-2 adrenergic receptor (Rattus norvegicus) (UniProt P10608).
Description: Displacement of [3H]DHA from beta2 adrenergic receptor in rat lung muscle by competitive binding assay

Drawing on ChEMBL document CHEMBL3227934, “Cardioselectivity of beta-adrenoceptor blocking agents 1. 1-[(4-Hydroxyphenethyl)amino]-3-(aryloxy)propan-2-ols” (J Med Chem, 1979), this text covers Ratio and Kapp for 17 compounds.

Beta-2 adrenergic receptor (Rattus norvegicus), sequence (P10608 whole entry, looked up): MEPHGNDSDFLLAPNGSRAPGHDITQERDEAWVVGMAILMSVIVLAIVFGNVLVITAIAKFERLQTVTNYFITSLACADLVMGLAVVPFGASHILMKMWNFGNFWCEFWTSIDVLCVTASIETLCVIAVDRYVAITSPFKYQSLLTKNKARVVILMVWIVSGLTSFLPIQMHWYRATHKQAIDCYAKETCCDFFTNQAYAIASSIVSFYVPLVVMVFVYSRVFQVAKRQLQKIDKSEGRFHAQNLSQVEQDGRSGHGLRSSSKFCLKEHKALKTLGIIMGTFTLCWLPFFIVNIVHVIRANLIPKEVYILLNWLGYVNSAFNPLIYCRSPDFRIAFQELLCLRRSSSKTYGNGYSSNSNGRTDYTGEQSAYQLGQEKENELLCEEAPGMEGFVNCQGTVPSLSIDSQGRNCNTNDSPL
Beta-1 adrenergic receptor (Rattus norvegicus), sequence (P18090 whole entry, looked up): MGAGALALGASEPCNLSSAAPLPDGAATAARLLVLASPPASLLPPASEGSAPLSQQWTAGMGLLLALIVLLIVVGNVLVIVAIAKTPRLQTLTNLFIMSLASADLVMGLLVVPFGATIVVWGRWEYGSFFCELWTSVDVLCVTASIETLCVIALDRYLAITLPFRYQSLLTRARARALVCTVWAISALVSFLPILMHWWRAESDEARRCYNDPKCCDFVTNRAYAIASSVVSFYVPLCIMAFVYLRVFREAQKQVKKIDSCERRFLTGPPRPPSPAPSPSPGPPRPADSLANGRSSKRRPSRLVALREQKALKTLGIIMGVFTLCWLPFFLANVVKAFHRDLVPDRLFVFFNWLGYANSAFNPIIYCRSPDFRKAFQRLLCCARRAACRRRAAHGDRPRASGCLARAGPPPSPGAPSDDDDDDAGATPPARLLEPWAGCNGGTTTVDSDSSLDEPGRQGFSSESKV

Take `CC(=O)Nc1ccc(OCC(O)CNCCc2ccc(O)cc2)cc1` (centres undefined): the Ratio in the assay filed under Rattus norvegicus came out at 4.9. Further, the Kapp was 18 µM in assay [1] and 88 µM in assay [2].
In the same order, the values of `COc1ccc(CCNCC(O)COc2ccccc2)cc1OC` (centres undefined) are 4.7, 0.38 µM and 1.8 µM.
In the case of `CCCCCC(=O)Nc1ccc(OCC(O)CNC(C)C)cc1` (centres undefined), the Ratio in the assay listed under Rattus norvegicus turned out to be 16. Moreover, the Kapp in assay [1] was determined as 2.2 µM; in assay [2] it was 34 µM.
As to `CCCCCC(=O)Nc1ccc(OCC(O)CNCCc2ccc(OC)c(OC)c2)c(Cl)c1` (centres undefined), the Ratio in the assay filed under Rattus norvegicus turned out to be 53. For the same compound, the results for the Kapp in assay [1] and in assay [2] were 0.32 µM and 17 µM, respectively.
The like results for `O=C1CCCc2c(OCC(O)CNCCc3ccc(O)cc3)cccc21` (centres undefined) were, in that order, 1.5, 0.37 µM and 0.56 µM.
In the same order, the values of `CCCCCC(=O)Nc1ccc(OCC(O)CNCCc2ccc(O)cc2)c(Cl)c1` (centres undefined) are 5, 2.7 µM and 14 µM.
With `CC(=O)Nc1ccccc1OCC(O)CNCCc1ccc(O)cc1` (centres undefined), the Ratio in the assay filed under Rattus norvegicus worked out at 7.6. In addition, the Kapp in assay [1] turned out to be 2.1 µM; in assay [2], 16 µM.
On to `CC(=O)Nc1ccc(OCC(O)CNC(C)C)cc1` (racemic), for which, in the assay listed under Rattus norvegicus, the Ratio is 17. The Kapp in assay [1] was 18 µM; in assay [2], 313 µM.
On to `CC(C)NCC(O)COc1ccccc1` (centres undefined), for which the Ratio in the assay filed under Rattus norvegicus turned out to be 1.5. Moreover, the Kapp in assay [1] came out at 0.24 µM; in assay [2], 0.37 µM.
In the same order, the values of `C=CCc1ccccc1OCC(O)CNCCc1ccc(O)cc1` (centres undefined) are 1.3, 0.2 µM and 0.27 µM.
In the same order, the values of `COc1ccc(CCNCC(O)COc2ccc(NC(C)=O)cc2)cc1OC` (centres undefined) are 32, 7 µM and 224 µM.
The like results for `CCCCCC(=O)Nc1ccc(OCC(O)CNCCc2ccc(OC)c(OC)c2)cc1` (centres undefined) were, in that order, 77, 0.35 µM and 27 µM.
On to `CCCCCC(=O)Nc1ccc(OCC(O)CNCCc2ccc(O)cc2)cc1` (centres undefined), for which the Ratio in the assay listed under Rattus norvegicus came to 10. Besides, the values for the Kapp in assay [1] and in assay [2] were 3.9 µM and 39 µM, respectively.
As for `CC(C)(C)NCC(O)COc1cccc2c1CCCC2=O` (centres undefined), in the assay filed under Rattus norvegicus, the Ratio worked out at 1.1. The Kapp in assay [1] turned out to be 0.015 µM; in assay [2], 0.017 µM.
Turning to `CC(C)NCC(O)COc1cccc2[nH]ccc12` (racemic), in assay [1], the Kapp was determined as 0.014 µM.
With `Oc1ccc(CCNCC(O)COc2ccccc2)cc1` (centres undefined), in the assay listed under Rattus norvegicus, the Ratio stood at 0.3. The Kapp in assay [1] was 0.7 µM; in assay [2] it was 0.24 µM.
With `C=CCc1ccccc1OCC(O)CNC(C)C` (racemic), the Ratio in the assay listed under Rattus norvegicus is 2.6. Moreover, the Kapp in assay [1] was 0.0077 µM; in assay [2], 0.02 µM.
